One block for each molecule: values may come before it.
Target: T1, BTK protein (Homo sapiens, UniProt Q06187)
T1 construct: endogenous in cells; host or cells: TMD-8 cells
Test: Measurement of BTK protein degradation ability in TMD-8 cells (Western blotting)
Type: cell-based
Conditions: harvested after 24 hours; for BTK degradation (%) 1 nM: compound 1 nM; for BTK degradation (%) 10 nM: compound 10 nM; for BTK degradation (%) 100 nM: compound 100 nM
Outline: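 TMD-8 cells (1×10^6/mL) were treated for 24 h with compound at 0.1, 1, 10 μM or 0.0001–0.1 μM, with DMSO as vehicle control. RIPA lysates were normalized by BCA assay. BTK was detected by Western blot with anti-BTK, using GAPDH or β-actin as loading controls, and imaged on LI-COR Odyssey.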

T1 sequence (Q06187 whole entry): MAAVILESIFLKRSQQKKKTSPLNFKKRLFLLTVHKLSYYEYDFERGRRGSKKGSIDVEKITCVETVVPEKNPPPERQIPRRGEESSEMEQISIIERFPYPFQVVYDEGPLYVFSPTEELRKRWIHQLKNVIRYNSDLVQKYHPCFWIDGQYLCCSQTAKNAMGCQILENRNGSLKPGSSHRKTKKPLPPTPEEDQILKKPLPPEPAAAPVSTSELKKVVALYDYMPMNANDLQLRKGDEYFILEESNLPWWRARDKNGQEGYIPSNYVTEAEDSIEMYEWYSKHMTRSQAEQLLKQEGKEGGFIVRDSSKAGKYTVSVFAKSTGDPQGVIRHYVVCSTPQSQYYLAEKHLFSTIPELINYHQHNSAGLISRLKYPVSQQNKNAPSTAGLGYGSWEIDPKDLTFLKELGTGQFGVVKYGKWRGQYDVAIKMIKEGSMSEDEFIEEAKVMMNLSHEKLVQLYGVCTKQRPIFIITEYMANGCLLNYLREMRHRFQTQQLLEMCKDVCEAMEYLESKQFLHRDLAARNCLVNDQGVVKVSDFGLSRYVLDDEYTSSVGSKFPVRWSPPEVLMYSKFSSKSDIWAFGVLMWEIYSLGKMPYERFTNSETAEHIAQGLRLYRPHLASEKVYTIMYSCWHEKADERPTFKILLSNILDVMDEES

SMILES: Cc1cc(-c2ccnc(Nc3cnn(C4CCN(CC5CCN(c6ccc7c(c6)C(=O)N(C6CCC(=O)NC6=O)C7=O)CC5)CC4)c3)n2)ccc1CNC(=O)c1cnn(C(C)(C)C)c1 (stereo not drawn) [Example 37, 1-(tert-butyl)-N-(4-(2-((1-(1-((1-(2-(2,6-dioxopiperidin-3-yl)-1,3-dioxoisoindolin-5-yl)piperidin-4-yl)methyl)piperidin-4-yl)-1H-pyrazol-4-yl)amino)pyrimidin-4-yl)-2-methylbenzyl)-1H-pyrazole-4-carboxamide]
- BTK degradation (%) 1 nM: 54.5%
- BTK degradation (%) 10 nM: 92.5%
- BTK degradation (%) 100 nM: 99%

SMILES: Cc1cc(-c2ccnc(Nc3ccc(N4CCN(CC5CCN(c6ccc(OC7CCC(=O)NC7=O)cc6)CC5)CC4)cc3)n2)ccc1CNC(=O)c1cnn(C(C)C)c1 (stereo not drawn) [Example 48, N-(4-(2-((4-(4-((1-(4-((2,6-dioxopiperidin-3-yl)oxy)phenyl)piperidin-4-yl)methyl)piperazin-1-yl)phenyl)amino)pyrimidin-4-yl)-2-methylbenzyl)-1-isopropyl-1H-pyrazole-4-carboxamide]
- BTK degradation (%) 1 nM: 53.5%
- BTK degradation (%) 10 nM: 94.5%
- BTK degradation (%) 100 nM: 99.0%

SMILES: Cc1cc(-c2ccnc(Nc3ccc(N4CCC(CN5CCN(C(=O)c6cccc(NC7CCC(=O)NC7=O)c6)CC5)CC4)cc3)n2)ccc1CNC(=O)N1CC(OC(C)C)C1 (stereo not drawn) [Example 114, N-(4-(2-((4-(4-((4-(3-((2,6-dioxopiperidin-3-yl)amino)benzoyl)piperazin-1-yl)methyl)piperidin-1-yl)phenyl)amino)pyrimidin-4-yl)-2-methylbenzyl)-3-isopropoxyazetidine-1-carboxamide]
- BTK degradation (%) 1 nM: 59.0%
- BTK degradation (%) 10 nM: 99.5%
- BTK degradation (%) 100 nM: 99.5%

SMILES: CC(C)(C)n1cc(C(=O)NCc2ccc(-c3ccnc(Nc4ccc(N5CCC(CN6CCC(c7ccc(NC8CCC(=O)NC8=O)cc7)CC6)CC5)cc4)n3)cc2CO)nn1 (stereo not drawn) [Example 143, 1-(tert-butyl)-N-(4-(2-((4-(4-((4-(4-((2,6-dioxopiperidin-3-yl)amino)phenyl)piperidin-1-yl)methyl)piperidin-1-yl)phenyl)amino)pyrimidin-4-yl)-2-(hydroxymethyl)benzyl)-1H-1,2,3-triazole-4-carbamide]
- BTK degradation (%) 1 nM: 74.0%
- BTK degradation (%) 10 nM: 99.5%
- BTK degradation (%) 100 nM: 100.0%

SMILES: Cc1cc(-c2ccnc(Nc3ccc(N4CCN(CC5CCN(C(=O)c6cccc(NC7CCC(=O)NC7=O)c6)CC5)CC4)cc3)n2)ccc1CNC(=O)c1cnn(C(C)C)c1 (stereo not drawn) [Example 93, N-(4-(2-((4-(4-((1-(3-((2,6-dioxopiperidin-3-yl)amino)benzoyl)piperidin-4-yl)methyl)piperazin-1-yl)phenyl)amino)pyrimidin-4-yl)-2-methylbenzyl)-1-isopropyl-1H-pyrazole-4-carboxamide]
- BTK degradation (%) 1 nM: 62.0%
- BTK degradation (%) 10 nM: 94.5%
- BTK degradation (%) 100 nM: 98.5%

SMILES: Cc1cc(-c2ccnc(Nc3ccc(N4CCN(CC5CCN(c6ccc(NC7CCC(=O)NC7=O)cn6)CC5)CC4)cc3)n2)ccc1CNC(=O)N1CC(OC(C)C)C1 (stereo not drawn) [Example 52, N-(4-(2-((4-(4-((1-(5-((2,6-dioxopiperidin-3-yl)amino)pyridin-2-yl)piperidin-4-yl)methyl)piperazin-1-yl)phenyl)amino)pyrimidin-4-yl)-2-methylbenzyl)-3-isopropoxyazetidine-1-carboxamide]
- BTK degradation (%) 1 nM: 24.0%
- BTK degradation (%) 10 nM: 92.0%
- BTK degradation (%) 100 nM: 99.3%

SMILES: Cc1cc(-c2ccnc(Nc3ccc(CN4CCN(CC5CCN(c6cccc(NC7CCC(=O)NC7=O)c6)CC5)CC4)cc3)n2)ccc1CNC(=O)N1CC(OC(C)C)C1 (stereo not drawn) [Example 64, N-(4-(2-((4-((4-((1-(3-((2,6-dioxopiperidin-3-yl)amino)phenyl)piperidin-4-yl)methyl)piperazin-1-yl)methyl)phenyl)amino)pyrimidin-4-yl)-2-methylbenzyl)-3-isopropoxyazetidine-1-carboxamide]
- BTK degradation (%) 1 nM: 43.0%
- BTK degradation (%) 10 nM: 92.5%
- BTK degradation (%) 100 nM: 98.5%

The next lines start with the values.

- BTK degradation (%) 1 nM: 39.7%
- BTK degradation (%) 10 nM: 95.7%
- BTK degradation (%) 100 nM: 100.0%
SMILES: Cc1cc(-c2ccnc(Nc3ccc(N4CCC(CN5CCC(c6ccc(NC7CCC(=O)NC7=O)cn6)CC5)CC4)cc3)n2)ccc1CNC(=O)N1CC(OC(C)C)C1 (stereo not drawn) [Example 126, N-(4-(2-((4-(4-((4-(5-((2,6-dioxopiperidin-3-yl)amino)pyridin-2-yl)piperidin-1-yl)methyl)piperidin-1-yl)phenyl)amino)pyrimidin-4-yl)-2-methylbenzyl)-3-isopropoxyazetidine-1-carboxamide]

- BTK degradation (%) 1 nM: 60.5%
- BTK degradation (%) 10 nM: 96.5%
- BTK degradation (%) 100 nM: 100.0%
SMILES: Cc1cc(-c2ccnc(Nc3ccc(N4CCC(CN5CCN(c6ccc(NC7CCC(=O)NC7=O)cn6)CC5)CC4)cc3)n2)ccc1CNC(=O)c1cn(C(C)(C)C)nn1 (stereo not drawn) [Example 133, 1-(tert-butyl)-N-(4-(2-((4-(4-((4-(5-((2,6-dioxopiperidin-3-yl)amino)pyridin-2-yl)piperazin-1-yl)methyl)piperidin-1-yl)phenyl)amino)pyrimidin-4-yl)-2-methylbenzyl)-1H-1,2,3-triazole-4-carboxamide]

- BTK degradation (%) 1 nM: 14.7%
- BTK degradation (%) 10 nM: 85.0%
- BTK degradation (%) 100 nM: 99.3%
SMILES: Cc1cc(-c2ccnc(Nc3ccc(N4CCC(CN5CCN(c6ccc(OC7CCC(=O)NC7=O)cn6)CC5)CC4)cc3)n2)ccc1CNC(=O)N1CC(OC(C)C)C1 (stereo not drawn) [Example 125, N-(4-(2-((4-(4-((4-(5-((2,6-dioxopiperidin-3-yl)oxy)pyridin-2-yl)piperazin-1-yl)methyl)piperidin-1-yl)phenyl)amino)pyrimidin-4-yl)-2-methylbenzyl)-3-isopropoxyazetidine-1-carboxamide]

- BTK degradation (%) 1 nM: 36.0%
- BTK degradation (%) 10 nM: 92.0%
- BTK degradation (%) 100 nM: 99.0%
SMILES: Cc1cc(-c2ccnc(Nc3ccc(C4CCN(CC5CCN(c6cccc(N7CCC(=O)NC7=O)c6)CC5)CC4)cc3)n2)ccc1CNC(=O)c1cnn(C(C)C)c1 [Example 84, N-(4-(2-((4-(1-((1-(3-(2,4-dioxotetrahydropyrimidin-1 (2H)-yl)phenyl)piperidin-4-yl)methyl)piperidin-4-yl)phenyl)amino)pyrimidin-4-yl)-2-methylbenzyl)-1-isopropyl-1H-pyrazole-4-carboxamide]

- BTK degradation (%) 1 nM: 15.5%
- BTK degradation (%) 10 nM: 68.0%
- BTK degradation (%) 100 nM: 95.0%
SMILES: Cc1cc(-c2ccnc(Nc3ccc(N4CCC(CN5CCC(c6ccc(N7CCC(=O)NC7=O)cc6)CC5)CC4)cc3)n2)ccc1CNC(=O)c1cn(C(C)(C)C)nn1 [Example 139, 1-(tert-butyl)-N-(4-(2-((4-(4-((4-(4-(2,4-dioxotetrahydropyrimidin-1 (2H)-yl)phenyl)piperidin-1-yl)methyl)piperidin-1-yl)phenyl)amino)pyrimidin-4-yl)-2-methylbenzyl)-1H-1,2,3-triazole-4-carboxamide]

- BTK degradation (%) 1 nM: −0.5%
- BTK degradation (%) 10 nM: 33%
- BTK degradation (%) 100 nM: 87%
SMILES: Cc1cc(-c2ccnc(Nc3ccc(N4CCN(CC5CCN(C(=O)c6cccc(N7CCC(=O)NC7=O)c6)CC5)CC4)cc3)n2)ccc1CNC(=O)N1CC(OC(C)C)C1 [Example 89, N-(4-(2-((4-(4-((1-(3-(2,4-dioxotetrahydropyrimidin-1 (2H)-yl)benzoyl)piperidin-4-yl)methyl)piperazin-1-yl)phenyl)amino)pyrimidin-4-yl)-2-methylbenzyl)-3-isopropoxyazetidine-1-carboxamide]

- BTK degradation (%) 1 nM: 66.5%
- BTK degradation (%) 10 nM: 95.5%
- BTK degradation (%) 100 nM: 99.0%
SMILES: Cc1cc(-c2ccnc(Nc3ccc(N4CCN(CC5CCN(c6cccc(NC7CCC(=O)NC7=O)c6)CC5)CC4)cc3)n2)ccc1CNC(=O)c1cn(C(C)(C)C)nn1 (stereo not drawn) [Example 61, 1-(tert-butyl)-N-(4-(2-((4-(4-((1-(3-((2,6-dioxopiperidin-3-yl)amino)phenyl)piperidin-4-yl)methyl)piperazin-1-yl)phenyl)amino)pyrimidin-4-yl)-2-methylbenzyl)-1H-1,2,3-triazole-4-carboxamide]

- BTK degradation (%) 1 nM: 70.0%
- BTK degradation (%) 10 nM: 95.5%
- BTK degradation (%) 100 nM: 98.0%
SMILES: Cc1cc(-c2ccnc(Nc3ccc(N4CCN(CC5CN(C(=O)c6cccc(NC7CCC(=O)NC7=O)c6)C5)CC4)cc3)n2)ccc1CNC(=O)c1cnn(C(C)(C)C)c1 (stereo not drawn) [Example 96, 1-(tert-butyl)-N-(4-(2-((4-(4-((1-(3-((2,6-dioxopiperidin-3-yl)amino)benzoyl)azetidin-3-yl)methyl)piperazin-1-yl)phenyl)amino)pyrimidin-4-yl)-2-methylbenzyl)-1H-pyrazole-4-carboxamide]

- BTK degradation (%) 1 nM: 44%
- BTK degradation (%) 10 nM: 93.5%
- BTK degradation (%) 100 nM: 99.5%
SMILES: Cc1cc(-c2ccnc(Nc3ccc(N4CCC(CN5CCN(c6ccc7c(c6)C(=O)N(C6CCC(=O)NC6=O)C7=O)CC5)CC4)cc3)n2)ccc1CNC(=O)N1CC(OC(C)C)C1 (stereo not drawn) [Example 111, N-(4-(2-((4-(4-((4-(2-(2,6-dioxopiperidin-3-yl)-1,3-dioxoisoindolin-5-yl)piperazin-1-yl)methyl)piperidin-1-yl)phenyl)amino)pyrimidin-4-yl)-2-methylbenzyl)-3-isopropoxyazetidine-1-carboxamide]

- BTK degradation (%) 1 nM: 4%
- BTK degradation (%) 10 nM: 10%
- BTK degradation (%) 100 nM: 37.5%
SMILES: COc1ccc(C(=O)N2CCC(CN3CCN(c4ccc(Nc5nccc(-c6cc(F)cc(NC(=O)N7CC(OC(C)C)C7)c6C)n5)cc4)CC3)CC2)cc1N1CCC(=O)NC1=O [Example 90, N-(3-(2-((4-(4-((1-(3-(2,4-dioxotetrahydropyrimidin-1 (2H)-yl)-4-methoxybenzoyl)piperidin-4-yl)methyl)piperazin-1-yl)phenyl)amino)pyrimidin-4-yl)-5-fluoro-2-methylphenyl)-3-isopropoxyazetidine-1-carboxamide]

Source: patent US20250041429A1, “COMPOUND HAVING BTK PROTEIN DEGRADATION ACTIVITY, AND MEDICAL USES THEREOF” (UBIX THERAPEUTICS, INC., priority 2021, published 2025)
